In PubChem BioAssay AID248 (DTP/NCI, 2004):
Where “and” joins values, the source holds several entries; their conditions need not be identical. Identical values can stand only once. Inconclusive results and toxic doses are left out. Cut-off read from the data, not from the text of the source: active = T/C of 150% or more; inactive = T/C below 125%. Square brackets hold non-standard residues; d marks the D form. Peptide text beside a SMILES is read from it. * marks the point of attachment. ξ: configuration not given here. Cbz = O=C(OCc1ccccc1)*; ξL = CC(C)CC(N)C(=O)O

Test system: L1210 leukemia ip in BDF1 mice, survival T/C
Assay: NCI In Vivo Anticancer Drug Screen. Data for tumor model L1210 Leukemia (intraperitoneal) in B6D2F1 (BDF1) mice
Details: endpoint: mean survival time, higher = longer survival
How it was run: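 Mice bearing the transplanted tumor received compound or vehicle. Survival of the treated group was divided by that of the vehicle-treated control group to give the ratio.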

[1] = dose: 50.0 mg/kg/injection, schedule: Q01DX009 (ip), vehicle: saline
[2] = dose: 100.0 mg/kg/injection, schedule: Q01DX009 (ip), vehicle: saline
[3] = dose: 100.0 mg/kg/injection, schedule: Q04DX003 (ip), vehicle: saline
[4] = dose: 200.0 mg/kg/injection, schedule: Q01DX009 (ip), vehicle: saline
[5] = dose: 100.0 mg/kg/injection, schedule: Q01DX001 (ip), vehicle: carboxymethylcellulose (CMC)
[6] = dose: 200.0 mg/kg/injection, schedule: Q01DX001 (ip), vehicle: carboxymethylcellulose (CMC)
[7] = dose: 100.0 mg/kg/injection, schedule: Q04DX003 (ip), vehicle: saline with Tween-80
[8] = dose: 200.0 mg/kg/injection, schedule: Q04DX003 (ip), vehicle: saline with Tween-80
[9] = dose: 400.0 mg/kg/injection, schedule: Q04DX003 (ip), vehicle: saline with Tween-80
[10] = dose: 100.0 mg/kg/injection, schedule: Q01DX001 (ip), vehicle: saline
[11] = dose: 50.0 mg/kg/injection, schedule: Q01DX009 (ip), vehicle: saline with Tween-80
[12] = dose: 100.0 mg/kg/injection, schedule: Q01DX009 (ip), vehicle: saline with Tween-80
[13] = dose: 50.0 mg/kg/injection, schedule: Q01DX001 (ip), vehicle: carboxymethylcellulose (CMC)
[14] = dose: 400.0 mg/kg/injection, schedule: Q01DX001 (ip), vehicle: carboxymethylcellulose (CMC)
[15] = dose: 100.0 mg/kg/injection, schedule: Q01DX009 (ip), vehicle: Klucel (hydroxypropylcellulose) (HPC)
[16] = dose: 100.0 mg/kg/injection, schedule: Q04DX003 (ip), vehicle: Klucel (hydroxypropylcellulose) (HPC)
[17] = dose: 200.0 mg/kg/injection, schedule: Q01DX009 (ip), vehicle: Klucel (hydroxypropylcellulose) (HPC)
[18] = dose: 200.0 mg/kg/injection, schedule: Q04DX003 (ip), vehicle: Klucel (hydroxypropylcellulose) (HPC)
[19] = dose: 400.0 mg/kg/injection, schedule: Q04DX003 (ip), vehicle: Klucel (hydroxypropylcellulose) (HPC)
[20] = dose: 100.0 mg/kg/injection, schedule: Q01DX001 (ip), vehicle: gum acacia
[21] = dose: 200.0 mg/kg/injection, schedule: Q01DX001 (ip), vehicle: gum acacia
[22] = dose: 400.0 mg/kg/injection, schedule: Q01DX001 (ip), vehicle: gum acacia
[23] = dose: 400.0 mg/kg/injection, schedule: Q01DX009 (ip), vehicle: Klucel (hydroxypropylcellulose) (HPC)
[24] = dose: 200.0 mg/kg/injection, schedule: Q01DX001 (ip), vehicle: saline
[25] = dose: 400.0 mg/kg/injection, schedule: Q01DX001 (ip), vehicle: saline
[26] = dose: 100.0 mg/kg/injection, schedule: Q01DX001 (ip), vehicle: Klucel (hydroxypropylcellulose) (HPC)
[27] = dose: 200.0 mg/kg/injection, schedule: Q01DX001 (ip), vehicle: Klucel (hydroxypropylcellulose) (HPC)
[28] = dose: 400.0 mg/kg/injection, schedule: Q01DX001 (ip), vehicle: Klucel (hydroxypropylcellulose) (HPC)

Measured: T/C

NN1N=Nc2cccc3cccc1c23
inactive: [1] 96 % of control | [2] 107 % of control | [3] 92 % of control | [4] 88 % of control | dose: 200.0 mg/kg/injection, schedule: Q04DX003 (ip), vehicle: saline 91 % of control

CCCCCCC(=O)N(CCC)CCC
inactive: [5] 112 % of control | dose: 100.0 mg/kg/injection, schedule: Q01DX009 (ip), vehicle: carboxymethylcellulose (CMC) 98 % of control and 100 % of control | dose: 100.0 mg/kg/injection, schedule: Q04DX003 (ip), vehicle: carboxymethylcellulose (CMC) 97 % of control | [6] 102 % of control | dose: 200.0 mg/kg/injection, schedule: Q01DX009 (ip), vehicle: carboxymethylcellulose (CMC) 97 % of control and 104 % of control | dose: 200.0 mg/kg/injection, schedule: Q04DX003 (ip), vehicle: carboxymethylcellulose (CMC) 98 % of control

N#Cc1cc2ccncc2c2ccccc12
inactive: [7] 100 % of control | [8] 96 % of control | [9] 97 % of control

NNC(=O)CCCc1ccccc1
inactive: dose: 25.0 mg/kg/injection, schedule: Q01DX009 (ip), vehicle: saline 97 % of control | [1] 103 % of control | [10] 105 % of control

COc1ccc(CCCC(C)(C)O)cc1
inactive: [11] 94 % of control | [12] 97 % of control

CCOC(=O)CCC1(C(=O)OC)C(=O)CCCCCCC1C(=O)OC (configuration not stated)
inactive: [7] 103 % of control | [8] 99 % of control | [9] 96 % of control

COc1ccc(Cc2nc(-c3ccc(N=Cc4ccc(N(CCCl)CCCl)cc4)cc3)cs2)cc1
inactive: [13] 88 % of control | [5] 92 % of control | [6] 97 % of control | [14] 94 % of control

Cc1ccc(C(c2ccc(C)cc2)C(Cl)Cl)cc1
inactive: [12] 96 % of control | dose: 200.0 mg/kg/injection, schedule: Q01DX009 (ip), vehicle: saline with Tween-80 109 % of control | dose: 400.0 mg/kg/injection, schedule: Q01DX009 (ip), vehicle: saline with Tween-80 107 % of control

COc1cc(SSc2ccc(N)c(OC)c2)ccc1N
inactive: dose: 75.0 mg/kg/injection, schedule: Q01DX001 (ip), vehicle: carboxymethylcellulose (CMC) 105 % of control | dose: 150.0 mg/kg/injection, schedule: Q01DX001 (ip), vehicle: carboxymethylcellulose (CMC) 88 % of control

CCOC(=O)Cc1cc(OC)c(OC)c(OC)c1
inactive: dose: 100.0 mg/kg/injection, schedule: Q04DX003 (ip), vehicle: acetone 98 % of control | dose: 200.0 mg/kg/injection, schedule: Q04DX003 (ip), vehicle: acetone 94 % of control

Cc1cnc2cc(Cl)ccc2n1
inactive: dose: 50.0 mg/kg/injection, schedule: Q01DX009 (ip), vehicle: Klucel (hydroxypropylcellulose) (HPC) 94 % of control | [15] 93 % of control | [16] 102 % of control | [17] 107 % of control | [18] 96 % of control

CC(C)CCC(O)c1cnc(OCc2ccccc2)nc1OCc1ccccc1 (configuration not stated)
inactive: [16] 92 % of control | [18] 95 % of control | [19] 100 % of control

O=C(COc1cccc(Cl)c1)Nc1ccc(C(=O)CCl)cc1
inactive: [20] 90 % of control | [21] 100 % of control | [22] 99 % of control

O/N=C1/CCCC/C1=C/c1ccccc1Cl
inactive: [7] 92 % of control | [8] 100 % of control | [9] 100 % of control

CCOC1OC(C(O)CO)C(O)C1O (configuration not stated)
inactive: [7] 98 % of control | [8] 98 % of control | [9] 96 % of control

O=S(=O)(/N=C1C=C/C(=N/S(=O)(=O)c2ccccc2)C2C3C=CC(C3)C/12)c1ccccc1 (configuration not stated)
inactive: [15] 109 % of control | [16] 94 % of control | [17] 103 % of control | [18] 97 % of control | [23] 95 % of control | [19] 92 % of control

O=[N+]([O-])c1cccc(N=Cc2ccc3c(c2)OCO3)c1
inactive: [2] 96 % of control | [4] 93 % of control | dose: 400.0 mg/kg/injection, schedule: Q01DX009 (ip), vehicle: saline 100 % of control

CN1Cc2ccccc2-c2ccccc2C1
inactive: dose: 75.0 mg/kg/injection, schedule: Q01DX001 (ip), vehicle: saline 101 % of control

CC(C)(C)/C(=N\[N+](C)(C)C)c1ccccc1
inactive: [3] 98 % of control

CC(=O)Nc1cccc(C[P+](c2ccccc2)(c2ccccc2)c2ccccc2)c1
inactive: dose: 5.0 mg/kg/injection, schedule: Q01DX001 (ip), vehicle: carboxymethylcellulose (CMC) 95 % of control | dose: 10.0 mg/kg/injection, schedule: Q01DX001 (ip), vehicle: carboxymethylcellulose (CMC) 98 % of control | dose: 20.0 mg/kg/injection, schedule: Q01DX001 (ip), vehicle: carboxymethylcellulose (CMC) 95 % of control | dose: 40.0 mg/kg/injection, schedule: Q01DX001 (ip), vehicle: carboxymethylcellulose (CMC) 95 % of control | dose: 80.0 mg/kg/injection, schedule: Q01DX001 (ip), vehicle: carboxymethylcellulose (CMC) 93 % of control | [5] 97 % of control | [6] 90 % of control

CC/C(C)=N/C(=O)NN
inactive: dose: 100.0 mg/kg/injection, schedule: Q01DX001 (ip), vehicle: saline with Tween-80 103 % of control

COc1ccc(OC)c2c1CCCC2=O
inactive: dose: 50.0 mg/kg/injection, schedule: Q01DX001 (ip), vehicle: saline 96 % of control | [10] 99 % of control | [24] 91 % of control | [25] 96 % of control

O=C(CC(=O)c1ccccc1)Nc1ccc([N+](=O)[O-])cn1
inactive: dose: 50.0 mg/kg/injection, schedule: Q04DX003 (ip), vehicle: Klucel (hydroxypropylcellulose) (HPC) 91 % of control | [26] 103 % of control | [27] 105 % of control | [18] 93 % of control | [28] 98 % of control

FC(F)(F)C1=N/C(=C2\N=C(C(F)(F)F)N=C2Cl)C(Cl)=N1
inactive: dose: 25.0 mg/kg/injection, schedule: Q01DX009 (ip), vehicle: saline with Tween-80 94 % of control | [11] 96 % of control

CN(C(=O)c1ccccc1C(=O)N(C)c1ccccc1)c1ccccc1
inactive: [10] 109 % of control | [24] 109 % of control | [25] 97 % of control

O=C1c2ccccc2C(=O)N1CCOc1ccc([N+](=O)[O-])cc1
inactive: [20] 92 % of control | [21] 99 % of control | [22] 92 % of control

CCCCCCCCCCCCc1ccc2c(c1)CCc1ccccc1-2
inactive: [5] 97 % of control | [6] 92 % of control | [14] 90 % of control

Cc1cc(C)c([N+](=O)[O-])c(N)n1
inactive: [26] 102 % of control | [15] 102 % of control | [27] 105 % of control | [17] 101 % of control | [28] 100 % of control | [23] 103 % of control

CCOC(=O)c1cc2c(=O)c(C(=O)OCC)c[nH]c2o1
inactive: dose: 100.0 mg/kg/injection, schedule: Q04DX002 (ip), vehicle: Klucel (hydroxypropylcellulose) (HPC) 104 % of control | dose: 400.0 mg/kg/injection, schedule: Q04DX002 (ip), vehicle: Klucel (hydroxypropylcellulose) (HPC) 104 % of control

CN(C)NC(=O)/C=C\C(=O)O
inactive: dose: 100.0 mg/kg/injection, schedule: Q04DX002 (ip), vehicle: saline with Tween-80 93 % of control | dose: 200.0 mg/kg/injection, schedule: Q04DX002 (ip), vehicle: saline with Tween-80 100 % of control | dose: 400.0 mg/kg/injection, schedule: Q04DX002 (ip), vehicle: saline with Tween-80 93 % of control

Cc1ccc2cc(-c3ccc(C4CCCCC4)cc3)c(N=O)n2c1
inactive: [13] 93 % of control | [5] 96 % of control | [6] 90 % of control | [14] 90 % of control

COC(=O)C(CC(C)C)NC(=O)CNC(=O)CNC(=O)OCc1ccccc1 (stereo not drawn) (Cbz-Gly-Gly-[ξL]-OMe)
inactive: [16] 105 % of control | [18] 96 % of control | [19] 96 % of control
